{"source": "paper PMC6823631", "about": "(Journal of immunology (Baltimore, Md. : 1950), 2019)", "experiment_in_all_cases": "fluorescence quenching titration of antibody tryptophan", "key": {"[1]": {"target": "IgE", "assay_type": "binding"}, "[2]": {"target": "penicillin G specific IgG (IgG^Pen, monoclonal antibody clone P2B9)", "assay_type": "binding, Mus musculus"}, "[3]": {"target": "anti-dansyl IgE (IgE^dansyl, clone 27-74)", "assay_type": "binding"}}}
{"compound": "O=C(O)Cc1ccc2ccccc2c1", "note": "[Napht, 2-naphteleneacetic acid]", "values": [{"measurement": "Kd", "setting": "[1]", "result": "1800 ± 300", "unit": "nM"}]}
{"compound": "Benzylpenicilloyl", "values": [{"measurement": "Kd", "setting": "[2]", "result": "20000 ± 4000", "unit": "nM"}]}
{"compound": "dansyl", "values": [{"measurement": "Kd", "setting": "[3]", "result": "29.9 ± 10", "unit": "nM"}]}
